# Results from US12466800B2, “N-((1,2,3,5,6,7-hexahydro-S-indacen-4-yl)carbamoyl)-4, 5, 6, 7-tetrahydrobenzofuran-2-sulfonamide derivatives and related compounds as NLPR3 modulators for the treatment of multiple sclerosis (MS)” (Zomagen Biosciences Ltd, priority 2019, dated 2025).
# System: IL-1b
# Assay: Mouse BMDM IL-1b Assay
# Assay type: cell-based
# Details: Macrophage; mouse bone marrow derived macrophages (C57BL6); 200 ng/mL LPS 3 h, compound 30 min, 5 mM ATP 45 min; IL-1b ELISA of supernatant
# Procedure: Example 20: Mouse BMDM IL-1b Assay
# Mouse bone marrow cells from C57BL6 tibia and femur were culture in complete Isocov's Media supplemented with 20 ng/mL MCSF (BMDM media) at a density of 50 million cells/15 cm Petri dish. Fresh media was changed every 3 days, and bone marrow derived macrophages were collected, washed, and counted on day 7. Cells were seeded into 96 well plates at a density of 5×10^4 cells per well in 100 uL of BMDM media and cultured overnight. The cells were stimulated at 37° C. with 200 ng/mL Ultrapure LPS-B5 for 3 hours before pre-diluted compounds were added. 30 minutes after compound addition, 5 mM ATP was added for the secondary stimulation for 45 minutes. After stimulation, the plates were briefly spun down, and 50 uL of supernatant was harvested from each well. ELISA for mouse IL-1b was performed with 1:10 and 1:100 diluted supernatant using pre-coated kits. IL-1b concentrations were calculated based on pre-titrated standards, and compound inhibition IC50 is generated using the Levenberg Marquardt damped lease-square method.
row,Compound,IC50 [nM]
1,"CC(=O)NC1CCCc2oc(S(=O)(=O)NC(=O)Nc3c4c(c(Br)c5c3CCC5)CCC4)cc21 (stereo not shown) [Compound 42, N-(2-(N-((8-bromo-1,2,3,5,6,7-hexahydro-s-indacen-4-yl)carbamoyl)sulfamoyl)-4,5,6,7-tetrahydrobenzofuran-4-yl)acetamide]",100 to 1000
2,"O=C(Nc1c2c(c(Cl)c3c1CCC3)CCC2)NS(=O)(=O)c1cc2c(o1)CCCC2O (stereo not shown) [Compound 43, N-((8-chloro-1,2,3,5,6,7-hexahydro-s-indacen-4-yl)carbamoyl)-4-hydroxy-4,5,6,7-tetrahydrobenzofuran-2-sulfonamide]",< 100
3,"O=C(Nc1c2c(c(F)c3c1CCC3)CCC2)NS(=O)(=O)c1cc2c(o1)CCCC2O (stereo not shown) [Compound 46, N-((8-fluoro-1,2,3,5,6,7-hexahydro-s-indacen-4-yl)carbamoyl)-4-hydroxy-4,5,6,7-tetrahydrobenzofuran-2-sulfonamide]",< 100
4,"CC1(O)CCCc2oc(S(=O)(=O)NC(=O)Nc3c4c(c(F)c5c3CCC5)CCC4)cc21 (stereo not shown) [Compound 47, N-((8-fluoro-1,2,3,5,6,7-hexahydro-s-indacen-4-yl)carbamoyl)-4-hydroxy-4-methyl-4,5,6,7-tetrahydrobenzofuran-2-sulfonamide]",< 100
5,"CC1(O)CCCc2oc(S(=O)(=O)NC(=O)Nc3c4c(c(C#N)c5c3CCC5)CCC4)cc21 (stereo not shown) [Compound 53, N-((8-cyano-1,2,3,5,6,7-hexahydro-s-indacen-4-yl)carbamoyl)-4-hydroxy-4-methyl-4,5,6,7-tetrahydrobenzofuran-2-sulfonamide]",100 to 1000
6,"N#Cc1c2c(c(NC(=O)NS(=O)(=O)c3cc4c(o3)CCCC4O)c3c1CCC3)CCC2 (stereo not shown) [Compound 54, N-((8-cyano-1,2,3,5,6,7-hexahydro-s-indacen-4-yl)carbamoyl)-4-hydroxy-4,5,6,7-tetrahydrobenzofuran-2-sulfonamide]",100 to 1000
7,"O=C(Nc1c2c(cc3c1CCC3)CCC2)NS(=O)(=O)c1cc2c(o1)CCCC2(O)C(F)(F)F (stereo not shown) [Compound 56, N-((1,2,3,5,6,7-hexahydro-s-indacen-4-yl)carbamoyl)-4-hydroxy-4-(trifluoromethyl)-4,5,6,7-tetrahydrobenzofuran-2-sulfonamide]",< 100
8,"CC(C)c1cccc(C(C)C)c1NC(=O)NS(=O)(=O)c1cc2c(o1)CCCC2O (stereo not shown) [Compound 59, N-((2,6-diisopropylphenyl)carbamoyl)-4-hydroxy-4,5,6,7-tetrahydrobenzofuran-2-sulfonamide]",100 to 1000
9,"CC(C)c1cc(F)cc(C(C)C)c1NC(=O)NS(=O)(=O)c1cc2c(o1)CCCC2O (stereo not shown) [Compound 63, N-((4-fluoro-2,6-diisopropylphenyl)carbamoyl)-4-hydroxy-4,5,6,7-tetrahydrobenzofuran-2-sulfonamide]",100 to 1000
10,"CC(C)c1cc(F)cc(C(C)C)c1NC(=O)NS(=O)(=O)c1cc2c(o1)CCCC2(C)O (stereo not shown) [Compound 64, N-((4-fluoro-2,6-diisopropylphenyl)carbamoyl)-4-hydroxy-4-methyl-4,5,6,7-tetrahydrobenzofuran-2-sulfonamide]",< 100
11,"CC(C)c1ccc(Cl)c(C(C)C)c1NC(=O)NS(=O)(=O)c1cc2c(o1)CCCC2O (stereo not shown) [Compound 65, N-((3-chloro-2,6-diisopropylphenyl)carbamoyl)-4-hydroxy-4,5,6,7-tetrahydrobenzofuran-2-sulfonamide]",< 100
12,"CC(C)c1ccc(Cl)c(C(C)C)c1NC(=O)NS(=O)(=O)c1cc2c(o1)CCCC2(C)O (stereo not shown) [Compound 66, N-((3-chloro-2,6-diisopropylphenyl)carbamoyl)-4-hydroxy-4-methyl-4,5,6,7-tetrahydrobenzofuran-2-sulfonamide]",100 to 1000
13,"CC(C)c1cc(Br)cc(C(C)C)c1NC(=O)NS(=O)(=O)c1cc2c(o1)CCCC2(C)O (stereo not shown) [Compound 70, N-((4-bromo-2,6-diisopropylphenyl)carbamoyl)-4-hydroxy-4-methyl-4,5,6,7-tetrahydrobenzofuran-2-sulfonamide]",100 to 1000
14,"CC(C)c1cc(C#N)cc(C(C)C)c1NC(=O)NS(=O)(=O)c1cc2c(o1)CCCC2(C)O (stereo not shown) [Compound 72, N-((4-cyano-2,6-diisopropylphenyl)carbamoyl)-4-hydroxy-4-methyl-4,5,6,7-tetrahydrobenzofuran-2-sulfonamide]",100 to 1000

# The remaining lines, values ahead:
row,IC50 [nM],Compound
1,< 100,"CC1(O)CCCc2oc(S(=O)(=O)NC(=O)Nc3c4c(c(Cl)c5c3CCC5)CCC4)cc21 (stereo not shown) [Compound 44, N-((8-chloro-1,2,3,5,6,7-hexahydro-s-indacen-4-yl)carbamoyl)-4-hydroxy-4-methyl-4,5,6,7-tetrahydrobenzofuran-2-sulfonamide]"
2,< 100,"CCC1(O)CCCc2oc(S(=O)(=O)NC(=O)Nc3c4c(cc5c3CCC5)CCC4)cc21 (stereo not shown) [Compound 45, 4-ethyl-N-((1,2,3,5,6,7-hexahydro-s-indacen-4-yl)carbamoyl)-4-hydroxy-4,5,6,7-tetrahydrobenzofuran-2-sulfonamide]"
3,100 to 1000,"CC1CC(=NO)c2cc(S(=O)(=O)NC(=O)Nc3c4c(cc5c3CCC5)CCC4)oc2C1 (stereo not shown) [Compound 48, N-((1,2,3,5,6,7-hexahydro-s-indacen-4-yl)carbamoyl)-4-(hydroxyimino)-6-methyl-4,5,6,7-tetrahydrobenzofuran-2-sulfonamide]"
4,100 to 1000,"CC1(C)CC(=NO)c2cc(S(=O)(=O)NC(=O)Nc3c4c(cc5c3CCC5)CCC4)oc2C1 [Compound 49, N-((1,2,3,5,6,7-hexahydro-s-indacen-4-yl)carbamoyl)-4-(hydroxyimino)-6,6-dimethyl-4,5,6,7-tetrahydrobenzofuran-2-sulfonamide]"
5,< 100,"CC1(C)CCc2oc(S(=O)(=O)NC(=O)Nc3c4c(cc5c3CCC5)CCC4)cc2C1=NO [Compound 50, N-((1,2,3,5,6,7-hexahydro-s-indacen-4-yl)carbamoyl)-4-(hydroxyimino)-5,5-dimethyl-4,5,6,7-tetrahydrobenzofuran-2-sulfonamide]"
6,< 100,"Cc1c2c(c(NC(=O)NS(=O)(=O)c3cc4c(o3)CCCC4(C)O)c3c1CCC3)CCC2 (stereo not shown) [Compound 51, 4-hydroxy-4-methyl-N-((8-methyl-1,2,3,5,6,7-hexahydro-s-indacen-4-yl)carbamoyl)-4,5,6,7-tetrahydrobenzofuran-2-sulfonamide]"
7,< 100,"Cc1c2c(c(NC(=O)NS(=O)(=O)c3cc4c(o3)CCCC4O)c3c1CCC3)CCC2 (stereo not shown) [Compound 52, 4-hydroxy-N-((8-methyl-1,2,3,5,6,7-hexahydro-s-indacen-4-yl)carbamoyl)-4,5,6,7-tetrahydrobenzofuran-2-sulfonamide]"
8,< 100,"O=C(Nc1c2c(c(C(F)(F)F)c3c1CCC3)CCC2)NS(=O)(=O)c1cc2c(o1)CCCC2O (stereo not shown) [Compound 55, 4-hydroxy-N-((8-(trifluoromethyl)-1,2,3,5,6,7-hexahydro-s-indacen-4-yl)carbamoyl)-4,5,6,7-tetrahydrobenzofuran-2-sulfonamide]"
9,100 to 1000,"CN1CCCc2oc(S(=O)(=O)NC(=O)Nc3c4c(cc5c3CCC5)CCC4)cc2C1=O [Compound 57, N-((1,2,3,5,6,7-hexahydro-s-indacen-4-yl)carbamoyl)-5-methyl-4-oxo-5,6,7,8-tetrahydro-4H-furo[3,2-c]azepine-2-sulfonamide]"
10,100 to 1000,"CC1(O)CCCc2oc(S(=O)(=O)NC(=O)Cc3c4c(cc5c3CCC5)CCC4)cc21 (stereo not shown) [Compound 58, 2-(1,2,3,5,6,7-hexahydro-s-indacen-4-yl)-N-((4-hydroxy-4-methyl-4,5,6,7-tetrahydrobenzofuran-2-yl)sulfonyl)acetamide]"
11,100 to 1000,"CC(C)c1cccc(C(C)C)c1NC(=O)NS(=O)(=O)c1cc2c(o1)CCCC2(C)O (stereo not shown) [Compound 60, N-((2,6-diisopropylphenyl)carbamoyl)-4-hydroxy-4-methyl-4,5,6,7-tetrahydrobenzofuran-2-sulfonamide]"
12,100 to 1000,"CC(C)c1cc(Cl)cc(C(C)C)c1NC(=O)NS(=O)(=O)c1cc2c(o1)CCCC2O (stereo not shown) [Compound 61, N-((4-chloro-2,6-diisopropylphenyl)carbamoyl)-4-hydroxy-4,5,6,7-tetrahydrobenzofuran-2-sulfonamide]"
13,< 100,"CC(C)c1cc(Cl)cc(C(C)C)c1NC(=O)NS(=O)(=O)c1cc2c(o1)CCCC2(C)O (stereo not shown) [Compound 62, N-((4-chloro-2,6-diisopropylphenyl)carbamoyl)-4-hydroxy-4-methyl-4,5,6,7-tetrahydrobenzofuran-2-sulfonamide]"
14,100 to 1000,"CC(C)c1ccc(F)c(C(C)C)c1NC(=O)NS(=O)(=O)c1cc2c(o1)CCCC2O (stereo not shown) [Compound 67, N-((3-fluoro-2,6-diisopropylphenyl)carbamoyl)-4-hydroxy-4,5,6,7-tetrahydrobenzofuran-2-sulfonamide]"
15,< 100,"CC(C)c1ccc(F)c(C(C)C)c1NC(=O)NS(=O)(=O)c1cc2c(o1)CCCC2(C)O (stereo not shown) [Compound 68, N-((3-fluoro-2,6-diisopropylphenyl)carbamoyl)-4-hydroxy-4-methyl-4,5,6,7-tetrahydrobenzofuran-2-sulfonamide]"
16,100 to 1000,"CC(C)c1cc(Br)cc(C(C)C)c1NC(=O)NS(=O)(=O)c1cc2c(o1)CCCC2O (stereo not shown) [Compound 69, N-((4-bromo-2,6-diisopropylphenyl)carbamoyl)-4-hydroxy-4,5,6,7-tetrahydrobenzofuran-2-sulfonamide]"
17,100 to 1000,"CC(C)c1cc(C#N)cc(C(C)C)c1NC(=O)NS(=O)(=O)c1cc2c(o1)CCCC2O (stereo not shown) [Compound 71, N-((4-cyano-2,6-diisopropylphenyl)carbamoyl)-4-hydroxy-4,5,6,7-tetrahydrobenzofuran-2-sulfonamide]"
